Data on 6 compounds can be found in PubChem BioAssay AID258 (DTP/NCI, 2004).

The assay concerns CD2F1 mice, L1210 leukemia sc, survival T/C. The assay is described as follows: NCI In Vivo Anticancer Drug Screen. Data for tumor model L1210 Leukemia (subcutaneous) in CD2F1 (CDF1) mice. Conditions: higher = longer survival. The method, then: The antitumor activity of compounds was measured in mice bearing transplantable tumors. Survival or tumor size were measured and the results are expressed as the measurement made in the treated group (T) divided by the measurement made in the vehicle treated control group (C). The tumor model used in this assay is L1210 Leukemia (subcutaneous) in CD2F1 (CDF1) mice

[1] abbreviates: endpoint: median survival time, dose: 23.0 mg/kg/injection, schedule: Q01DX Z (sc), vehicle: water.
Setting [2] is: endpoint: median survival time, dose: 39.0 mg/kg/injection, schedule: Q01DX Z (sc), vehicle: water.
Setting [3] is: endpoint: median survival time, dose: 65.0 mg/kg/injection, schedule: Q01DX Z (sc), vehicle: water.

Where “and” joins values, the source holds several entries; their conditions need not be identical. Identical values can stand only once. Toxic doses and inconclusive results are not listed.

Turning to `CN(C)/N=N/c1nc[nH]c1C(N)=O`, the T/C is, setting by setting: (endpoint: mean survival time, dose: 39.0 mg/kg/injection, schedule: Q01DX009 (sc), vehicle: steriod suspending solution) 118 % of control; (endpoint: mean survival time, dose: 50.0 mg/kg/injection, schedule: Q01DX017 (sc), vehicle: steriod suspending solution) 117 % of control; (endpoint: mean survival time, dose: 65.0 mg/kg/injection, schedule: Q01DX009 (sc), vehicle: steriod suspending solution) 118 % of control; (endpoint: mean survival time, dose: 200.0 mg/kg/injection, schedule: Q01DX017 (sc), vehicle: steriod suspending solution) 156 % of control; (endpoint: mean survival time, dose: 400.0 mg/kg/injection, schedule: Q01DX017 (sc), vehicle: steriod suspending solution) 172 % of control; (endpoint: median survival time, dose: 6.25 mg/kg/injection, schedule: Q01DX009 (ip), vehicle: saline) 104 % of control. In addition, the T/C by setting is: (endpoint: median survival time, dose: 12.5 mg/kg/injection, schedule: Q01DX009 (ip), vehicle: saline) 121 % of control; (endpoint: median survival time, dose: 39.0 mg/kg/injection, schedule: Q01DX009 (sc), vehicle: steriod suspending solution) 114 % of control; (endpoint: median survival time, dose: 39.0 mg/kg/injection, schedule: Q01DX Z (sc), vehicle: steriod suspending solution) 111 % of control; (endpoint: median survival time, dose: 50.0 mg/kg/injection, schedule: Q01DX017 (sc), vehicle: steriod suspending solution) 118 % of control and 122 % of control; (endpoint: median survival time, dose: 65.0 mg/kg/injection, schedule: Q01DX009 (sc), vehicle: steriod suspending solution) 117 % of control; (endpoint: median survival time, dose: 65.0 mg/kg/injection, schedule: Q01DX Z (sc), vehicle: carboxymethylcellulose (CMC)) 100 % of control. Moreover, the T/C reads like this: (endpoint: median survival time, dose: 65.0 mg/kg/injection, schedule: Q01DX Z (sc), vehicle: steriod suspending solution) 116 % of control; (endpoint: median survival time, dose: 100.0 mg/kg/injection, schedule: Q01DX009 (ip), vehicle: saline with Tween-80) 157 % of control; (endpoint: median survival time, dose: 100.0 mg/kg/injection, schedule: Q01DX009 (ip), vehicle: saline) 157 % of control; (endpoint: median survival time, dose: 100.0 mg/kg/injection, schedule: Q01DX009 (sc), vehicle: saline) 151 % of control; (endpoint: median survival time, dose: 108.0 mg/kg/injection, schedule: Q01DX Z (sc), vehicle: carboxymethylcellulose (CMC)) 100 % of control; (endpoint: median survival time, dose: 150.0 mg/kg/injection, schedule: Q01DX009 (ip), vehicle: saline) 178 % of control. Further, the T/C reads like this: (endpoint: median survival time, dose: 180.0 mg/kg/injection, schedule: Q01DX Z (sc), vehicle: carboxymethylcellulose (CMC)) 100 % of control; (endpoint: median survival time, dose: 200.0 mg/kg/injection, schedule: Q01DX009 (ip), vehicle: saline with Tween-80) 160 % of control; (endpoint: median survival time, dose: 200.0 mg/kg/injection, schedule: Q01DX009 (ip), vehicle: saline) 166 % of control; (endpoint: median survival time, dose: 200.0 mg/kg/injection, schedule: Q01DX017 (sc), vehicle: steriod suspending solution) 152 % of control and 155 % of control; (endpoint: median survival time, dose: 225.0 mg/kg/injection, schedule: Q01DX009 (sc), vehicle: saline) 186 % of control; (endpoint: median survival time, dose: 300.0 mg/kg/injection, schedule: Q01DX009 (ip), vehicle: saline) 172 % of control. Besides, the T/C (endpoint: median survival time, dose: 300.0 mg/kg/injection, schedule: Q01DX009 (sc), vehicle: steriod suspending solution) is 153 % of control; the T/C (endpoint: median survival time, dose: 300.0 mg/kg/injection, schedule: Q01DX Z (sc), vehicle: carboxymethylcellulose (CMC)) is 100 % of control; the T/C (endpoint: median survival time, dose: 300.0 mg/kg/injection, schedule: Q01DX Z (sc), vehicle: steriod suspending solution) was 155 % of control; the T/C (endpoint: median survival time, dose: 400.0 mg/kg/injection, schedule: Q01DX017 (sc), vehicle: steriod suspending solution) is 175 % of control and 177 % of control; the T/C (endpoint: median survival time, dose: 500.0 mg/kg/injection, schedule: Q01DX Z (sc), vehicle: carboxymethylcellulose (CMC)) was 111 % of control and 100 % of control; the T/C (endpoint: median survival time, dose: 600.0 mg/kg/injection, schedule: Q01DX009 (sc), vehicle: saline + alcohol) is 160 % of control. Also, the T/C (endpoint: median survival time, dose: 600.0 mg/kg/injection, schedule: Q01DX009 (sc), vehicle: saline) was 118 % of control; the T/C (endpoint: median survival time, dose: 800.0 mg/kg/injection, schedule: Q01DX009 (ip), vehicle: saline with Tween-80) is 96 % of control; the T/C (endpoint: median survival time, dose: 833.0 mg/kg/injection, schedule: Q01DX Z (sc), vehicle: carboxymethylcellulose (CMC)) is 150 % of control; the T/C (endpoint: median survival time, dose: 900.0 mg/kg/injection, schedule: Q01DX009 (sc), vehicle: saline + alcohol) was 155 % of control; the T/C (endpoint: median survival time, dose: 1200.0 mg/kg/injection, schedule: Q01DX009 (sc), vehicle: saline) was 90 % of control; the T/C (endpoint: median survival time, dose: 1388.0 mg/kg/injection, schedule: Q01DX Z (sc), vehicle: carboxymethylcellulose (CMC)) is 155 % of control.
Regarding `O=c1n(CC2CO2)c(=O)n(CC2CO2)c(=O)n1CC1CO1` (configuration not stated), the T/C (endpoint: median survival time, dose: 12.5 mg/kg/injection, schedule: Q04DX003 (ip), vehicle: saline) was 106 % of control; the T/C (endpoint: median survival time, dose: 25.0 mg/kg/injection, schedule: Q04DX003 (ip), vehicle: saline) is 114 % of control; the T/C (endpoint: median survival time, dose: 40.0 mg/kg/injection, schedule: Q01DX009 (ip), vehicle: saline) was 150 % of control and 191 % of control; the T/C (endpoint: median survival time, dose: 40.0 mg/kg/injection, schedule: Q04DX003 (ip), vehicle: saline) was 114 % of control; the T/C (endpoint: median survival time, dose: 50.0 mg/kg/injection, schedule: Q01DX009 (ip), vehicle: saline) is 172 % of control and 193 % of control; the T/C (endpoint: median survival time, dose: 50.0 mg/kg/injection, schedule: Q04DX003 (ip), vehicle: saline) is 153 % of control and 172 % of control.
As for `N=C(N)Cc1ccc(NC(=O)c2ccc(C(=O)Nc3ccc(CC(=N)N)cc3)cc2)cc1`, the T/C runs as follows: (endpoint: median survival time, dose: 8.4 mg/kg/injection, schedule: Q01DX Z (sc), vehicle: water) 110 % of control; (endpoint: median survival time, dose: 14.0 mg/kg/injection, schedule: Q01DX Z (sc), vehicle: water) 105 % of control; under setting [1], 115 % of control; under setting [2], 110 % of control; under setting [3], 115 % of control.
On to `CSC1SCC2C(=O)N(C)C(C(C)C)C(=O)OCC(NC(=O)c3cnc4ccccc4n3)C(=O)NC(C)C(=O)N(C)C1C(=O)N(C)C(C(C)C)C(=O)OCC(NC(=O)c1cnc3ccccc3n1)C(=O)NC(C)C(=O)N2C` (configuration not stated), for which the T/C is 98 % of control (endpoint: median survival time, dose: 7.5 micrograms/kg/injection, schedule: Q01DX009 (ip), vehicle: Klucel (hydroxypropylcellulose) (HPC)); 97 % of control (endpoint: median survival time, dose: 15.0 micrograms/kg/injection, schedule: Q01DX009 (ip), vehicle: Klucel (hydroxypropylcellulose) (HPC)); 96 % of control (endpoint: median survival time, dose: 30.0 micrograms/kg/injection, schedule: Q01DX009 (ip), vehicle: Klucel (hydroxypropylcellulose) (HPC)); 100 % of control (endpoint: median survival time, dose: 60.0 micrograms/kg/injection, schedule: Q01DX009 (ip), vehicle: Klucel (hydroxypropylcellulose) (HPC)); 102 % of control (endpoint: median survival time, dose: 120.0 micrograms/kg/injection, schedule: Q01DX009 (ip), vehicle: Klucel (hydroxypropylcellulose) (HPC)).
For the compound `CNCCN=c1ccc2c3c1c(O)c1c(O)ccc(=O)c1c3[nH]n2CCNCCO`, the T/C is, setting by setting: (endpoint: median survival time, dose: 1.08 mg/kg/injection, schedule: Q01DX009 (ip), vehicle: water) 117 % of control; (endpoint: median survival time, dose: 3.0 mg/kg/injection, schedule: Q01DX009 (ip), vehicle: water) 206 % of control; (endpoint: median survival time, dose: 5.0 mg/kg/injection, schedule: Q01DX009 (ip), vehicle: water) 124 % of control; (endpoint: median survival time, dose: 8.3 mg/kg/injection, schedule: Q01DX009 (ip), vehicle: water) 89 % of control.
On to `COCCCNc1ncnc2[nH]ncc12`, for which the T/C was 100 % of control under setting [1]; 100 % of control under setting [2]; 100 % of control under setting [3]; 100 % of control (endpoint: median survival time, dose: 108.0 mg/kg/injection, schedule: Q01DX Z (sc), vehicle: water); 109 % of control (endpoint: median survival time, dose: 180.0 mg/kg/injection, schedule: Q01DX Z (sc), vehicle: water); 109 % of control (endpoint: median survival time, dose: 300.0 mg/kg/injection, schedule: Q01DX Z (sc), vehicle: water).
